# Data published in patent publication US20150051206A1, “COMPOUNDS AND COMPOSITIONS AS C-KIT KINASE INHIBITORS” (IRM LLC, priority 2011, published 2015).
# Biological target: T1, c-kit (Homo sapiens, UniProt P10721)
# T1 construct: human Mo7e cells which endogenously express c-kit; endogenous in cells; host or cells: human Mo7e cells (promegakaryocytic leukemia line), stimulated with human recombinant SCF
# Experiment: Mo7e cell proliferation assay (SCF dependent proliferation)
# Format: cell-based
# Details: Table 2; Mo7e cells stimulated with human recombinant SCF, 48 hours; 1% FBS
# Procedure: Compounds of Formula (I) and Formula (II) provided herein were assayed to measure their capacity to inhibit c-kit and PDGFR kinases using the appropriate assay described below: c-Kit inhibition was evaluated using the Mo7e cell proliferation assay, and PDGFR inhibition was evaluated using the Rat A10 cell proliferation assay and the Human TG/HA-VSMC cell proliferation assay.
# The compounds of Table 1 and Table 2 were tested for inhibition of SCF dependent proliferation using human Mo7e cells which endogenously express c-kit in a 384 well format. […] After 48 hours of incubation at 37° C., cell viability was measured by adding 25 uL of CellTiter Glo (Promega) to the cells and the luminescence was measured by a CLIPR CCD camera (Molecular Devices).
# The IC50 value is given as that concentration of the test compound in question that provoke a response halfway between the baseline and maximum responses.
# T1 sequence (P10721 26-976): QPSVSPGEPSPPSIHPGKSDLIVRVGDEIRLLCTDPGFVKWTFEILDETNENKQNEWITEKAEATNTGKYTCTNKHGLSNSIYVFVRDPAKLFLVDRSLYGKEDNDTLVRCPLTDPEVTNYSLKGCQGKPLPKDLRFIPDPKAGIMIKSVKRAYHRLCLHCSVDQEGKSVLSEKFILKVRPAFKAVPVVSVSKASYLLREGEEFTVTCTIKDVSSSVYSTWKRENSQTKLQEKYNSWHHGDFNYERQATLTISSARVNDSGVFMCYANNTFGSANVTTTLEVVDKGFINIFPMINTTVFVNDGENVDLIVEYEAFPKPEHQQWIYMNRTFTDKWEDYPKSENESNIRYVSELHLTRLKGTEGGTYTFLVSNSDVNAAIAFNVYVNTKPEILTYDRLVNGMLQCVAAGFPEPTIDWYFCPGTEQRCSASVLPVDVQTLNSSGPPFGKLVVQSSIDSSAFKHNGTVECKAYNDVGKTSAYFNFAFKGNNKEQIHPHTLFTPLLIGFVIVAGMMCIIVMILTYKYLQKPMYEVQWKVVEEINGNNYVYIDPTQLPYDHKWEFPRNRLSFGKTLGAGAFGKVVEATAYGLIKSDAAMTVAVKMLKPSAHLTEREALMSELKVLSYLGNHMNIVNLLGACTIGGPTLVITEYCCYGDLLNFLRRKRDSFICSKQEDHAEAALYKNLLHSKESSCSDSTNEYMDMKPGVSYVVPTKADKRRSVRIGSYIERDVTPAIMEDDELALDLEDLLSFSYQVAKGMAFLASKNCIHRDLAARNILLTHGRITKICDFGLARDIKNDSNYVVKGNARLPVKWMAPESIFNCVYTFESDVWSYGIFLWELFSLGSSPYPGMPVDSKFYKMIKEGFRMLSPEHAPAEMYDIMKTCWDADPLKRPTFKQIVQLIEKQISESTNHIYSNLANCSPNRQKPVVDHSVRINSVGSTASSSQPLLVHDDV
row,Compound,IC50 [µM]
1,"Cc1ccc(-c2noc(-c3ccc(N4CCOCC4)cc3)n2)cc1NC(=O)c1cnc2ccccn12 [F65, N-(2-methyl-5-{5-[4-(morpholin-4-yl)phenyl]-1,2,4-oxadiazol-3-yl}phenyl)imidazo[1,2-a]pyridine-3-carboxamide]",1.08
2,Cc1ccc(-c2noc(CCc3nn[nH]n3)n2)cc1NC(=O)c1cnc2ccccn12 [F67],> 10
3,Cc1ccc(-c2nc(-c3ccc(F)cc3)no2)cc1NC(=O)c1cnc2ccccn12 [F68],> 10
4,Cc1ccc(-c2noc(-c3ccc(C)c(NC(=O)c4cnc5ccccn45)c3)n2)cc1F [F69],> 10

# The next lines start with the values.
row,IC50 [µM],Compound
1,> 10,Cc1ccc(-c2nc(-c3ccncc3)no2)cc1NC(=O)c1cnc2ccccn12 [F70]
2,> 10,Cc1ccc(-c2nc(-c3cccnc3)no2)cc1NC(=O)c1cnc2ccccn12 [F71]
3,> 10,Cc1ccc(-c2nc(-c3ccc(OC(F)(F)F)cc3)no2)cc1NC(=O)c1cnc2ccccn12 [F72]
